# In patent US20180000085A1, “USE OF PICOLINAMIDE COMPOUNDS WITH FUNGICIDAL ACTIVITY” (DOW AGROSCIENCES LLC, priority 2014, published 2018):
# How the values were obtained:
# Zymoseptoria tritici = test: Leaf blotch of wheat (SEPTTR) disease control on wheat seedlings; assay type: in vivo; design: key to SEPTTR 1DP, HV activity at 100 ppm (% control rating) / SEPTTR 3DC, HV activity at 100 ppm (% control rating) / SEPTTR disease control, 1DP / SEPTTR disease control, 3DC / SEPTTR 1DP disease control rating, HV activity / SEPTTR 3DC disease control rating, HV activity / SEPTTR 3DC, LV activity at 125.1 g/H (% Control rating) / SEPTTR 1DP, LV activity at 125.1 g/H (% Control rating) / SEPTTR 1DP disease control rating, LV activity at 125.1 g/H / SEPTTR 3DC disease control rating, LV activity at 125.1 g/H / SEPTTR 3DC disease control rating, HV activity at 100 ppm / SEPTTR 1DP disease control rating, HV activity at 100 ppm / HV activity at 100 ppm SEPTTR 3DC (disease control rating) / HV activity at 100 ppm SEPTTR 1DP (disease control rating) / LV activity at 125.1 g/H SEPTTR 1DP (disease control rating) / LV activity at 125.1 g/H SEPTTR 3DC (disease control rating): A: > 80; B: ≤ 80; C: Not Tested; D: No Activity Observed in the Reported Assay; details: for SEPTTR 1DP disease control rating, HV activity at 100 ppm / SEPTTR 3DC disease control rating, HV activity at 100 ppm: high volume application; for SEPTTR 1DP disease control rating, HV activity at 100 ppm / SEPTTR 1DP disease control rating, LV activity at 125.1 g/H: 1 day protectant; for SEPTTR 3DC disease control rating, HV activity at 100 ppm / SEPTTR 3DC disease control rating, LV activity at 125.1 g/H: 3 day curative
# Description: (§1) All fungicides were evaluated using the aforementioned method for their activity vs. all target diseases, unless stated otherwise. Wheat leaf blotch and brown rust activity were also evaluated using track spray applications, in which case the fungicides were formulated as EC formulations, containing 0.1% Trycol 5941 in the spray solutions. Wheat plants (variety Yuma) were grown from seed in a greenhouse in 50% mineral soil/50% soil-less Metro mix until the first leaf was fully emerged, with 7-10 seedlings per pot. These plants were inoculated with an aqueous spore suspension of Zymoseptoria tritici either prior to or after fungicide treatments. After inoculation the plants were kept in 100% relative humidity (one day in a dark dew chamber followed by two to three days in a lighted dew chamber at 20° C.) to permit spores to germinate and infect the leaf. The plants were then transferred to a greenhouse set at 20° C. for disease to develop. When disease symptoms were fully expressed on the 1st leaves of untreated plants, infection levels were assessed on a scale of 0 to 100 percent disease severity. Percent disease control was calculated using the ratio of disease severity on treated plants relative to untreated plants.
# Puccinia triticina = test: Wheat brown rust (PUCCRT) disease control on wheat seedlings; assay type: in vivo; design: key to PUCCRT 3DC, HV activity at 100 ppm (% control rating) / PUCCRT disease control, 3DC / PUCCRT 1DP disease control rating, HV activity / PUCCRT 3DC disease control rating, HV activity / PUCCRT 3DC, LV activity at 125.1 g/H (% Control rating) / PUCCRT 1DP, LV activity at 125.1 g/H (% Control rating) / PUCCRT 3DC disease control rating, LV activity at 125.1 g/H / PUCCRT 1DP disease control rating, LV activity at 125.1 g/H / PUCCRT 3DC disease control rating, HV activity at 100 ppm / PUCCRT 1DP disease control rating, HV activity at 100 ppm / HV activity at 100 ppm PUCCRT 3DC (disease control rating) / LV activity at 125.1 g/H PUCCRT 1DP (disease control rating) / LV activity at 125.1 g/H PUCCRT 3DC (disease control rating): A: > 80; B: ≤ 80; C: Not Tested; D: No Activity Observed in the Reported Assay; details: for PUCCRT 1DP disease control rating, HV activity at 100 ppm / PUCCRT 3DC disease control rating, HV activity at 100 ppm: high volume application; for PUCCRT 1DP disease control rating, HV activity at 100 ppm / PUCCRT 1DP disease control rating, LV activity at 125.1 g/H: 1 day protectant; for PUCCRT 3DC disease control rating, HV activity at 100 ppm / PUCCRT 3DC disease control rating, LV activity at 125.1 g/H: 3 day curative
# Description: as §1, with “plants. Example B: Evaluation of Fungicidal Activity: Wheat Brown Rust (Puccinia triticina; Synonym: Puccinia recondita f. sp. Tritici; Bayer Code PUCCRT) Wheat plants (variety Yuma) were grown from seed in a greenhouse in 50% mineral soil/50% soil-less Metro mix until the first leaf was fully emerged, with 7-10 seedlings per pot. These plants were inoculated with an aqueous spore suspension of Puccinia triticina either prior to or after fungicide treatments. […] The plants were then transferred to a greenhouse set at 24° C. for disease to develop. Fungicide formulation, application and disease assessment followed the procedures as described in the Example A.” for “plants.”
# [1] = low volume application, 125.1 g/H
# [2] = low volume application, 125.1 g/H, 1 Day Protectant, wheat leaf blotch
# [3] = low volume application, 125.1 g/H, 3 Day Curative, wheat leaf blotch
# [4] = low volume application, 125.1 g/H, 1 Day Protectant, wheat brown rust
# [5] = low volume application, 125.1 g/H, 3 Day Curative, wheat brown rust
# [6] = low volume application, 125.1 g/H, 1 Day Protectant
# [7] = low volume application, 125.1 g/H, 3 Day Curative
structure (smiles),measurement,setting,value
"COc1ccnc(C(=O)N[C@@H](C)C(=O)O[C@@H](C)[C@H](OCC2CC2)C2CCCC2)c1O [Cmpd 845, (S)-(1R,2S)-1-cyclopentyl-1-(cyclopropyl-methoxy)propan-2-yl-2-(3-hydroxy-4-methoxypicolinamido)propanoate]","SEPTTR 1DP disease control rating, HV activity at 100 ppm",Zymoseptoria tritici,B (≤ 80)
same,"SEPTTR 3DC disease control rating, HV activity at 100 ppm",Zymoseptoria tritici,B (≤ 80)
same,"PUCCRT 1DP disease control rating, HV activity at 100 ppm",Puccinia triticina,A (> 80)
same,"PUCCRT 3DC disease control rating, HV activity at 100 ppm",Puccinia triticina,A (> 80)
C=CC[C@@H](Oc1ccc(C(F)(F)F)cc1)[C@H](C)OC(=O)[C@H](C)NC(=O)c1nccc(OC)c1O [Cmpd 1020],"SEPTTR 1DP disease control rating, HV activity at 100 ppm",Zymoseptoria tritici,B (≤ 80)
same,"SEPTTR 3DC disease control rating, HV activity at 100 ppm",Zymoseptoria tritici,B (≤ 80)
same,"PUCCRT 1DP disease control rating, HV activity at 100 ppm",Puccinia triticina,A (> 80)
same,"PUCCRT 3DC disease control rating, HV activity at 100 ppm",Puccinia triticina,A (> 80)
CCC(CC)C(Oc1ccc(Cl)cc1Cl)C(C)OC(=O)C(C)NC(=O)c1nccc(OC)c1OC(C)=O (centres unmarked) [Cmpd 675],"SEPTTR 1DP disease control rating, LV activity at 125.1 g/H",Zymoseptoria tritici; [1],A (> 80)
same,"SEPTTR 3DC disease control rating, LV activity at 125.1 g/H",Zymoseptoria tritici; [1],A (> 80)
same,"PUCCRT 1DP disease control rating, LV activity at 125.1 g/H",Puccinia triticina; [1],A (> 80)
same,"PUCCRT 3DC disease control rating, LV activity at 125.1 g/H",Puccinia triticina; [1],B (≤ 80)
CCC(CC)[C@H](Oc1ccc(Cl)cc1Cl)[C@H](C)OC(=O)[C@H](C)NC(=O)c1nccc(OC)c1O [Cmpd 421],"SEPTTR 1DP disease control rating, HV activity","Zymoseptoria tritici; HV application at 100 ppm, 1 Day Protectant, wheat leaf blotch",B (≤ 80)
same,"SEPTTR 3DC disease control rating, HV activity","Zymoseptoria tritici; HV application at 100 ppm, 3 Day Curative, wheat leaf blotch",D
same,"PUCCRT 1DP disease control rating, HV activity","Puccinia triticina; HV application at 100 ppm, 1 Day Protectant, wheat brown rust",B (≤ 80)
same,"PUCCRT 3DC disease control rating, HV activity","Puccinia triticina; HV application at 100 ppm, 3 Day Curative, wheat brown rust",D
COc1cccc(O[C@@H]([C@H](C)OC(=O)[C@H](C)NC(=O)c2nccc(OC)c2OC(C)=O)C(C)(C)C)c1 [Cmpd 1062],LV activity at 125.1 g/H SEPTTR 1DP (disease control rating),Zymoseptoria tritici; [2],B (≤ 80)
same,LV activity at 125.1 g/H SEPTTR 3DC (disease control rating),Zymoseptoria tritici; [3],B (≤ 80)
same,LV activity at 125.1 g/H PUCCRT 1DP (disease control rating),Puccinia triticina; [4],A (> 80)
same,LV activity at 125.1 g/H PUCCRT 3DC (disease control rating),Puccinia triticina; [5],A (> 80)
COc1ccnc(C(=O)NC(C)C(=O)OC(C)C(Oc2ccccc2)c2ccc(-c3ccccc3)cc2)c1OCOC(C)=O (centres unmarked) [Cmpd 905],"SEPTTR 1DP disease control rating, LV activity at 125.1 g/H",Zymoseptoria tritici; [1],A (> 80)
same,"SEPTTR 3DC disease control rating, LV activity at 125.1 g/H",Zymoseptoria tritici; [1],A (> 80)
same,"PUCCRT 1DP disease control rating, LV activity at 125.1 g/H",Puccinia triticina; [1],A (> 80)
same,"PUCCRT 3DC disease control rating, LV activity at 125.1 g/H",Puccinia triticina; [1],B (≤ 80)
COc1ccnc(C(=O)NC(C)C(=O)OC(C)COC(=O)C(C)C)c1OC(C)=O (centres unmarked) [Cmpd 532],"SEPTTR 1DP, LV activity at 125.1 g/H (% Control rating)",Zymoseptoria tritici; [6],B (≤ 80)
same,"SEPTTR 3DC, LV activity at 125.1 g/H (% Control rating)",Zymoseptoria tritici; [7],A (> 80)
same,"PUCCRT 1DP, LV activity at 125.1 g/H (% Control rating)",Puccinia triticina; [6],D
same,"PUCCRT 3DC, LV activity at 125.1 g/H (% Control rating)",Puccinia triticina; [7],D
CCOc1ccnc(C(=O)N[C@@H](C)C(=O)O[C@@H](C)[C@@H](CC(C)C)Oc2cccc(Cl)c2)c1OC(C)=O [Cmpd 1109],LV activity at 125.1 g/H SEPTTR 1DP (disease control rating),Zymoseptoria tritici; [2],D
same,LV activity at 125.1 g/H SEPTTR 3DC (disease control rating),Zymoseptoria tritici; [3],B (≤ 80)
same,LV activity at 125.1 g/H PUCCRT 1DP (disease control rating),Puccinia triticina; [4],B (≤ 80)
same,LV activity at 125.1 g/H PUCCRT 3DC (disease control rating),Puccinia triticina; [5],B (≤ 80)
